Test results reported in PubChem BioAssay (NCI).
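Growth conditions: 96-well plates. Treatment: test compound, 48 hours, 5 concentrations. Analysis: linear interpolation between bracketing concentrations; unreached endpoints set to highest concentration. TGI denotes the concentration required for complete inhibition of growth.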

Columns and labels:
Test in all cases: growth of human tumour cells (NCI), 48 h
NCI-H23 lung = system: NCI-H23 lung
UACC-257 melanoma = system: UACC-257 melanoma
HCC-2998 colon = system: HCC-2998 colon
NCI/ADR-RES ovarian = system: NCI/ADR-RES ovarian
EKVX NSCLC = system: EKVX NSCLC
A549 NSCLC = system: A549 NSCLC
MDA-MB-231 breast = system: MDA-MB-231 breast
SR leukemia = system: SR leukemia
UO-31 renal = system: UO-31 renal
RPMI-8226 leukemia = system: RPMI-8226 leukemia
MCF7 breast = system: MCF7 breast
DU-145 prostate = system: DU-145 prostate

| Compound | TGI (NCI-H23 lung) | TGI (UACC-257 melanoma) | TGI (HCC-2998 colon) | TGI (NCI/ADR-RES ovarian) | TGI (EKVX NSCLC) | TGI (A549 NSCLC) | TGI (MDA-MB-231 breast) | TGI (SR leukemia) | TGI (UO-31 renal) | TGI (RPMI-8226 leukemia) | TGI (MCF7 breast) | TGI (DU-145 prostate) |
| --- | --- | --- | --- | --- | --- | --- | --- | --- | --- | --- | --- | --- |
| Fc1ccc(N2C(=S)SC(=Nc3ccccc3)C2=Nc2ccccc2)cc1 | > 100 µM | > 100 µM | > 100 µM | > 100 µM | > 100 µM | > 100 µM | > 100 µM | > 100 µM | > 100 µM | > 100 µM | > 100 µM | > 100 µM |
| Nc1ncnc2oc(C3OC(COC(=O)c4ccccc4)C(OC(=O)c4ccccc4)C3OC(=O)c3ccccc3)nc12 (stereo not drawn) | > 100 µM | > 100 µM | > 100 µM | > 100 µM | > 100 µM | > 100 µM | > 100 µM | > 100 µM | > 100 µM | > 100 µM | > 100 µM | > 100 µM |
| CC1(c2nc3ccccc3[nH]2)CCC(C(=O)O)C(C)(C)O1 (stereo not drawn) | > 100 µM | > 100 µM | > 100 µM | > 100 µM | > 100 µM | > 100 µM | > 100 µM | > 100 µM | > 100 µM | > 100 µM | > 100 µM | > 100 µM |
| COc1ccc(OC)c(CNc2ccc(C(=O)O)cc2)c1 | > 100 µM | > 100 µM | > 100 µM | > 100 µM | > 100 µM | > 100 µM | > 100 µM | > 100 µM | > 100 µM | > 100 µM | > 100 µM | > 100 µM |
| CCOC(=O)c1nc2cc(C(F)(F)F)ccc2nc1Nc1ccc(OC)cc1 | > 100 µM | > 100 µM | > 100 µM | > 100 µM | > 100 µM | > 100 µM | > 100 µM | > 100 µM | > 100 µM | > 100 µM | > 100 µM | > 100 µM |
| CCOP1(=O)CC(C)=C(Cl)C(O)C1 (stereo not drawn) | > 100 µM | > 100 µM | > 100 µM | > 100 µM | > 100 µM | > 100 µM | > 100 µM | > 100 µM | > 100 µM | > 100 µM | > 100 µM | > 100 µM |
| C[C@]12C[C@@H](OC(=O)[C@]1(C)O)[C@@H]([C@]1(O)CC[C@H]3[C@@H]4C[C@H]5O[C@]56C[C@H]5O[C@H]5C(=O)[C@]6(C)[C@H]4CC[C@@]31C)C2 | > 50 µM | > 50 µM | > 50 µM | > 50 µM | > 50 µM | > 50 µM | > 50 µM | > 50 µM | > 50 µM | > 50 µM | > 50 µM | > 50 µM |
| CC1(C)OC(=S)N(c2ccccc2)C12C=Cc1ccccc1O2 (stereo not drawn) | > 100 µM | > 100 µM | > 100 µM | > 100 µM | > 100 µM | > 100 µM | > 100 µM | 37.2 µM | > 100 µM | > 100 µM | > 100 µM | > 100 µM |
| CC(=O)OCC(=O)O[C@@H]1[C@H]2[C@@H](OC(=O)c3ccccc3)[C@@H](C)C[C@]2(O)[C@H](OC(C)=O)[C@@]2(C)C(OC(C)=O)[C@]1(OC(C)=O)C[C@H]1C(=O)C(C)(C)C[C@@H]12 (stereo partly drawn) | > 50 µM | > 50 µM | > 50 µM | > 50 µM | > 50 µM | > 50 µM | > 50 µM | > 50 µM | > 50 µM | > 50 µM | > 50 µM | > 50 µM |
| c1cc2nnc1SCCCSc1ccc(nn1)SCCCS2 | > 100 µM | > 71.6 µM | 99.5 µM | > 52.9 µM | > 100 µM | > 100 µM | > 100 µM | > 100 µM | > 100 µM | > 100 µM | > 100 µM | > 100 µM |
| CC(=O)Oc1ccc(/C=C/C(=O)OCCCOC(=O)/C=C/c2ccc(OC(C)=O)c(OC(C)=O)c2)cc1OC(C)=O | > 100 µM | > 100 µM | > 100 µM | > 100 µM | > 100 µM | > 100 µM | > 100 µM | > 100 µM | > 100 µM | > 100 µM | > 100 µM | > 100 µM |
| Clc1cc(Cl)cc(N=C/C=C/Nc2cc(Cl)cc(Cl)c2)c1 | 30.6 µM | > 100 µM | 33.4 µM | 34.6 µM | 26.9 µM | 43.1 µM | 30.2 µM | 86.4 µM | 71.7 µM | 76.9 µM | 27.2 µM | 44.3 µM |
| Cc1nc2ccc(C(F)(F)F)cc2nc1NCc1ccc(Cl)c(Cl)c1 | 30.9 µM | 30.1 µM | 22.3 µM | 47.6 µM | 27.4 µM | 30.6 µM | 29.4 µM | 32.7 µM | 29.9 µM | 38.9 µM | 22.6 µM | 31.8 µM |
| COc1cc2c(c(O)c1OC)C(=O)[C@@H]1CCC(=O)N1C2 | > 100 µM | > 100 µM | > 100 µM | > 100 µM | > 100 µM | > 100 µM | > 100 µM | > 100 µM | > 100 µM | > 100 µM | > 100 µM | > 100 µM |
